Test results: publication PMC12748989 (Nature Communications, 2025)

Columns and labels:
[1] = system: MDA-MB-231 cells
[2] = system: PBMC; conditions: 12.5 µM

CC[C@H](C)[C@H](N)C(=O)N[C@@H](CCC(=O)O)C(=O)N[C@@H](CC(C)C)C(=O)N[C@@H](CCCCN)C(=O)N[C@@H](C)C(=O)N[C@@H](CC(C)C)C(=O)N[C@@H](C)C(=O)N[C@@H](C)C(=O)N[C@@H](CC(C)C)C(=O)N[C@@H](C)C(=O)N[C@@H](CCCCN)C(=O)N[C@@H](CCCCN)C(=O)N[C@H](C(=O)N[C@@H](CC(C)C)C(N)=O)[C@@H](C)CC [E2]
Average (percentage cell inhibition), Dmastoparan MDA-MB231 12.5uM [1]: 39.1083% | Average (percentage cell inhibition), Mastoparan PBMC [2]: 11.8092%

CC[C@H](C)[C@H](NC(=O)[C@H](CCCCN)NC(=O)[C@H](CCCCN)NC(=O)[C@H](C)NC(=O)[C@H](CC(C)C)NC(=O)[C@H](C)NC(=O)[C@H](C)NC(=O)[C@H](CC(C)C)NC(=O)[C@H](C)NC(=O)[C@H](CCCCN)NC(=O)[C@H](CC(C)C)NC(=O)[C@H](CC(N)=O)NC(=O)[C@@H](N)CO)C(=O)N[C@@H](CC(C)C)C(N)=O [S1]
Average (percentage cell inhibition), Dmastoparan MDA-MB231 12.5uM [1]: 31.5771% | Average (percentage cell inhibition), Mastoparan PBMC [2]: -13.6432%

CC[C@H](C)[C@H](N)C(=O)N[C@@H](CC(N)=O)C(=O)N[C@@H](CC(C)C)C(=O)N[C@@H](CCCCN)C(=O)N[C@@H](C)C(=O)N[C@@H](CC(C)C)C(=O)N[C@@H](C)C(=O)N[C@@H](C)C(=O)N[C@@H](CC(C)C)C(=O)N[C@@H](CCC(N)=O)C(=O)N[C@@H](CCCCN)C(=O)N[C@@H](CCCCN)C(=O)N[C@H](C(=O)N[C@@H](CC(C)C)C(N)=O)[C@@H](C)CC [Q10]
Average (percentage cell inhibition), Dmastoparan MDA-MB231 12.5uM [1]: 6.186% | Average (percentage cell inhibition), Mastoparan PBMC [2]: 12.3938%

CC[C@H](C)[C@H](N)C(=O)N[C@@H](CC(N)=O)C(=O)N[C@@H](CC(C)C)C(=O)N[C@@H](CCCCN)C(=O)N[C@@H](C)C(=O)N[C@@H](CC(C)C)C(=O)N[C@@H](C)C(=O)N[C@@H](C)C(=O)N[C@@H](CC(C)C)C(=O)N[C@@H](C)C(=O)N[C@@H](CCCCN)C(=O)N[C@@H](CCCCN)C(=O)N[C@@H](CCC(=O)O)C(=O)N[C@@H](CC(C)C)C(N)=O [E13]
Average (percentage cell inhibition), Dmastoparan MDA-MB231 12.5uM [1]: 42.4043% | Average (percentage cell inhibition), Mastoparan PBMC [2]: -2.907%

CC[C@H](C)[C@H](NC(=O)[C@H](CCCCN)NC(=O)[C@H](CCCCN)NC(=O)[C@H](C)NC(=O)[C@H](CC(C)C)NC(=O)[C@H](C)NC(=O)[C@H](C)NC(=O)[C@H](CC(C)C)NC(=O)[C@H](C)NC(=O)[C@H](CCCCN)NC(=O)[C@H](CC(C)C)NC(=O)[C@H](CC(N)=O)NC(=O)[C@@H](N)Cc1c[nH]c2ccccc12)C(=O)N[C@@H](CC(C)C)C(N)=O [W1]
Average (percentage cell inhibition), Dmastoparan MDA-MB231 12.5uM [1]: 42.4034% | Average (percentage cell inhibition), Mastoparan PBMC [2]: 19.8521%

CC[C@H](C)[C@H](N)C(=O)N[C@@H](CC(N)=O)C(=O)N[C@@H](CC(C)C)C(=O)N[C@@H](CCCCN)C(=O)N[C@@H](C)C(=O)N[C@@H](CCCCN)C(=O)N[C@@H](C)C(=O)N[C@@H](C)C(=O)N[C@@H](CC(C)C)C(=O)N[C@@H](C)C(=O)N[C@@H](CCCCN)C(=O)N[C@@H](CCCCN)C(=O)N[C@H](C(=O)N[C@@H](CC(C)C)C(N)=O)[C@@H](C)CC [K6]
Average (percentage cell inhibition), Dmastoparan MDA-MB231 12.5uM [1]: 7.2133% | Average (percentage cell inhibition), Mastoparan PBMC [2]: -1.883%

CC[C@H](C)[C@H](N)C(=O)N[C@@H](CC(N)=O)C(=O)N[C@@H](CC(C)C)C(=O)N[C@@H](CCCCN)C(=O)N[C@@H](C)C(=O)N[C@@H](CC(C)C)C(=O)N[C@@H](C)C(=O)N[C@@H](C)C(=O)N[C@@H](CC(C)C)C(=O)N[C@@H](C)C(=O)N[C@@H](CCCCN)C(=O)N[C@@H](CC(N)=O)C(=O)N[C@H](C(=O)N[C@@H](CC(C)C)C(N)=O)[C@@H](C)CC [N12]
Average (percentage cell inhibition), Dmastoparan MDA-MB231 12.5uM [1]: 52.6491% | Average (percentage cell inhibition), Mastoparan PBMC [2]: 5.917%

CC[C@H](C)[C@H](N)C(=O)N[C@@H](CC(N)=O)C(=O)N1CCC[C@H]1C(=O)N[C@@H](CCCCN)C(=O)N[C@@H](C)C(=O)N[C@@H](CC(C)C)C(=O)N[C@@H](C)C(=O)N[C@@H](C)C(=O)N[C@@H](CC(C)C)C(=O)N[C@@H](C)C(=O)N[C@@H](CCCCN)C(=O)N[C@@H](CCCCN)C(=O)N[C@H](C(=O)N[C@@H](CC(C)C)C(N)=O)[C@@H](C)CC [P3]
Average (percentage cell inhibition), Dmastoparan MDA-MB231 12.5uM [1]: 17.7289% | Average (percentage cell inhibition), Mastoparan PBMC [2]: -5.207%

CC[C@H](C)[C@H](N)C(=O)N[C@@H](CC(N)=O)C(=O)N[C@@H](CC(C)C)C(=O)N[C@@H](CCCCN)C(=O)N[C@@H](C)C(=O)N[C@@H](CC(C)C)C(=O)N[C@@H](CCC(N)=O)C(=O)N[C@@H](C)C(=O)N[C@@H](CC(C)C)C(=O)N[C@@H](C)C(=O)N[C@@H](CCCCN)C(=O)N[C@@H](CCCCN)C(=O)N[C@H](C(=O)N[C@@H](CC(C)C)C(N)=O)[C@@H](C)CC [Q7]
Average (percentage cell inhibition), Dmastoparan MDA-MB231 12.5uM [1]: 23.653% | Average (percentage cell inhibition), Mastoparan PBMC [2]: 9.246%

CC[C@H](C)[C@H](N)C(=O)N[C@@H](CC(N)=O)C(=O)N[C@@H](CC(C)C)C(=O)N[C@@H](CCCCN)C(=O)N[C@@H](C)C(=O)N[C@@H](CC(C)C)C(=O)N[C@@H](C)C(=O)N[C@@H](CC(C)C)C(=O)N[C@@H](CC(C)C)C(=O)N[C@@H](C)C(=O)N[C@@H](CCCCN)C(=O)N[C@@H](CCCCN)C(=O)N[C@H](C(=O)N[C@@H](CC(C)C)C(N)=O)[C@@H](C)CC [L8]
Average (percentage cell inhibition), Dmastoparan MDA-MB231 12.5uM [1]: 38.4504% | Average (percentage cell inhibition), Mastoparan PBMC [2]: 16.9354%

CC[C@H](C)[C@H](N)C(=O)N[C@@H](CC(N)=O)C(=O)N[C@@H](CC(C)C)C(=O)N[C@@H](CCCCN)C(=O)N[C@@H](C)C(=O)N[C@@H](CC(C)C)C(=O)N[C@@H](C)C(=O)N[C@@H](C)C(=O)N[C@@H](CC(C)C)C(=O)N[C@@H](C)C(=O)N[C@@H](CCCCN)C(=O)N[C@@H](CCCCN)C(=O)N[C@H](C(=O)N[C@@H](CC(N)=O)C(N)=O)[C@@H](C)CC [N14]
Average (percentage cell inhibition), Dmastoparan MDA-MB231 12.5uM [1]: -1.851% | Average (percentage cell inhibition), Mastoparan PBMC [2]: 9.15%

CC[C@H](C)[C@H](N)C(=O)N[C@@H](CC(N)=O)C(=O)N[C@@H](CC(C)C)C(=O)N[C@@H](CCCCN)C(=O)N[C@@H](C)C(=O)N[C@@H](CC(C)C)C(=O)N[C@@H](C)C(=O)N[C@@H](C)C(=O)N[C@@H](Cc1ccc(O)cc1)C(=O)N[C@@H](C)C(=O)N[C@@H](CCCCN)C(=O)N[C@@H](CCCCN)C(=O)N[C@H](C(=O)N[C@@H](CC(C)C)C(N)=O)[C@@H](C)CC [Y9]
Average (percentage cell inhibition), Dmastoparan MDA-MB231 12.5uM [1]: 27.288% | Average (percentage cell inhibition), Mastoparan PBMC [2]: 11.8226%

CC[C@H](C)[C@H](N)C(=O)N[C@@H](CC(N)=O)C(=O)N[C@@H](CC(C)C)C(=O)N[C@@H](CCCCN)C(=O)N[C@@H](C)C(=O)N[C@@H](CC(C)C)C(=O)N[C@@H](Cc1c[nH]c2ccccc12)C(=O)N[C@@H](C)C(=O)N[C@@H](CC(C)C)C(=O)N[C@@H](C)C(=O)N[C@@H](CCCCN)C(=O)N[C@@H](CCCCN)C(=O)N[C@H](C(=O)N[C@@H](CC(C)C)C(N)=O)[C@@H](C)CC [W7]
Average (percentage cell inhibition), Dmastoparan MDA-MB231 12.5uM [1]: 92.6725% | Average (percentage cell inhibition), Mastoparan PBMC [2]: 70.534%

CC[C@H](C)[C@H](N)C(=O)N[C@@H](CC(N)=O)C(=O)N[C@@H](CCC(N)=O)C(=O)N[C@@H](CCCCN)C(=O)N[C@@H](C)C(=O)N[C@@H](CC(C)C)C(=O)N[C@@H](C)C(=O)N[C@@H](C)C(=O)N[C@@H](CC(C)C)C(=O)N[C@@H](C)C(=O)N[C@@H](CCCCN)C(=O)N[C@@H](CCCCN)C(=O)N[C@H](C(=O)N[C@@H](CC(C)C)C(N)=O)[C@@H](C)CC [Q3]
Average (percentage cell inhibition), Dmastoparan MDA-MB231 12.5uM [1]: 20.3646% | Average (percentage cell inhibition), Mastoparan PBMC [2]: 10.4738%

CC[C@H](C)[C@H](N)C(=O)N[C@@H](CC(N)=O)C(=O)N[C@@H](CC(C)C)C(=O)N[C@@H](Cc1c[nH]c2ccccc12)C(=O)N[C@@H](C)C(=O)N[C@@H](CC(C)C)C(=O)N[C@@H](C)C(=O)N[C@@H](C)C(=O)N[C@@H](CC(C)C)C(=O)N[C@@H](C)C(=O)N[C@@H](CCCCN)C(=O)N[C@@H](CCCCN)C(=O)N[C@H](C(=O)N[C@@H](CC(C)C)C(N)=O)[C@@H](C)CC [W4]
Average (percentage cell inhibition), Dmastoparan MDA-MB231 12.5uM [1]: 50.1282% | Average (percentage cell inhibition), Mastoparan PBMC [2]: 30.4839%

CC[C@H](C)[C@H](N)C(=O)N[C@@H](CC(N)=O)C(=O)N[C@@H](CC(C)C)C(=O)N[C@@H](CCCCN)C(=O)N[C@@H](C)C(=O)N[C@@H](CC(C)C)C(=O)N[C@@H](C)C(=O)N[C@@H](C)C(=O)N[C@@H](CC(C)C)C(=O)N[C@@H](C)C(=O)N[C@@H](CCCCN)C(=O)N[C@@H](CCCCN)C(=O)N[C@H](C(=O)N[C@@H](CCC(=O)O)C(N)=O)[C@@H](C)CC [E14]
Average (percentage cell inhibition), Dmastoparan MDA-MB231 12.5uM [1]: 33.8434% | Average (percentage cell inhibition), Mastoparan PBMC [2]: 2.998%

CC[C@H](C)[C@H](NC(=O)[C@H](CCCCN)NC(=O)[C@H](CCCCN)NC(=O)[C@H](C)NC(=O)[C@H](CC(C)C)NC(=O)[C@H](C)NC(=O)[C@H](C)NC(=O)[C@H](CC(C)C)NC(=O)[C@H](C)NC(=O)[C@H](CCCCN)NC(=O)[C@H](CC(C)C)NC(=O)[C@H](CC(N)=O)NC(=O)[C@H](C)N)C(=O)N[C@@H](CC(C)C)C(N)=O [A1]
Average (percentage cell inhibition), Dmastoparan MDA-MB231 12.5uM [1]: 30.2333% | Average (percentage cell inhibition), Mastoparan PBMC [2]: 5.463%

CC[C@H](C)[C@H](N)C(=O)N[C@@H](CC(N)=O)C(=O)N[C@@H](CC(C)C)C(=O)N[C@@H](CCCCN)C(=O)N[C@@H](C)C(=O)N[C@@H](CC(C)C)C(=O)N[C@@H](C)C(=O)N[C@@H](C)C(=O)N[C@@H](CC(C)C)C(=O)N[C@@H](CO)C(=O)N[C@@H](CCCCN)C(=O)N[C@@H](CCCCN)C(=O)N[C@H](C(=O)N[C@@H](CC(C)C)C(N)=O)[C@@H](C)CC [S10]
Average (percentage cell inhibition), Dmastoparan MDA-MB231 12.5uM [1]: 30.5653% | Average (percentage cell inhibition), Mastoparan PBMC [2]: 1.271%
